Experimental data taken from patent US20250263496A1, “Neutrophil-Activating Therapy for the Treatment of Cancer” (The Board of Trustees of the Leland Stanford Junior …, priority 2024, published 2025).

Tests used:
B16 cells = experiment: Mouse in vitro cytotoxicity (EuTDA), B16 cells co-cultured with neutrophils; assay type: cell-based; conditions: neutrophils from treated tumors stimulated with neutrophil-activating therapy
Procedure: B16 tumors were treated by intratumoral injection of TNF+anti-CD40+anti-gp75 and harvested 12 hours post-treatment. Tumors were dissected away from any surrounding fat, minced, and digested in 5 mg/ml collagenase IV (Worthington) plus 0.1 mg/ml DNase I (Sigma) with continuous mixing by magnetic stir bars for 20 minutes at 37° C. in RPMI-1640 (Gibco) with 2% FBS. Following digestion, tissue was mashed through a […] cell strainer (Falcon) and washed. For some studies, bone marrow was harvested by grinding bones from tumor-naive untreated mice in a mortar and pestle and mashing through a […] strainer (Falcon). Neutrophils were isolated from tumor and bone marrow samples with the MojoSort Mouse Ly6G Selection Kit (BioLegend), according to the manufacturer's instructions, and used in the cytotoxicity assay.
Cytotoxicity assays were conducted using the EuTDA assay from the DELFIA TRF cytotoxicity kit (PerkinElmer) according to the manufacturer's instructions. Briefly, B16 cells were labeled for 10 minutes with BATDA, and 5×10^3 labeled cells were added per well to a 96 well V-bottom plate in RPMI-1640. Neutrophils were added at a ratio of 10:1 unless otherwise stated. All co-cultures were conducted in the presence of TNF (10 ng/ml), anti-CD40 (1 μg/ml), anti-gp75 (1 μg/ml), and 10% active mouse C57BL/6 complement serum (Innovative Research), except where indicated otherwise. Mouse C57BL/6 complement serum was heat-inactivated for 40 minutes at 57° C. where inactivation is specified. In some experiments, mouse IgG2a isotype control (1 μg/ml, isotype control for anti-gp75, clone C1.18.4, Bio X Cell), anti-mouse CD16/CD32 (10 μg/ml, clone 2.4G2, Bio X Cell), recombinant mouse C5a (50 nM, R&D Systems), anti-C5a (25 μg/ml, clone 295108, R&D Systems), rat IgG2a isotype control (25 μg/ml, isotype control for anti-C5a, clone 2A3, Bio X Cell), anti-C5AR1 (5 μg/ml, clone 20/70, BioLegend), rat IgG2b isotype control (5 μg/ml, isotype control for anti-C5AR1, clone LTF-2, Bio X Cell), SC57461A (10 μM, Cayman Chemical), CP-105696 (1 μM, Sigma), topiroxostat (10 μM, MedChem Express), or DMSO (vehicle for SC57461A, CP-105696, and topiroxostat) were added to the wells with the B16 and neutrophils. After 4 hours of co-culture at 37° C., supernatant was taken from the wells, Europium solution was added, and TDA released from lysed B16 cells was detected by […] on a Victor X4 fluorescence microplate reader (PerkinElmer). Percent maximal lysis was determined by calculating the specific release of TDA using the formula: (experimental release−spontaneous release)/(maximum release −spontaneous release), where spontaneous release was determined by wells containing no neutrophils and maximum release was determined by wells with lysis buffer added.
For trogocytosis studies investigating transfer of tumor-binding antibody, anti-gp75 labeled with AF647 (clone TA99, Novus Biologicals) was used in place of unlabeled anti-gp75. For studies investigating transfer of B16 cell membrane, DiD′ Solid (ThermoFisher Scientific) was reconstituted in DMSO at 10 mg/ml and diluted to a working solution of 5 μg/ml in serum-free DMEM. B16 cells were labeled in this solution for 20 minutes at 37° C. at 1×10^6 cells/ml. Labeled B16 was washed 3 times in warm media before being added to the co-culture wells with the neutrophils. Following co-culture, flow cytometry was used to identify DiD signal in neutrophils.

B16 tumors = experiment: Oxidative damage in B16 tumors (DNA/RNA oxidation, oxidized glutathione); assay type: in vivo, mouse; conditions: agent given prior to neutrophil-activating therapy
Procedure: Tumors were dissected away from surrounding fat, fixed in 2% paraformaldehyde for 2 hours at 4° C., equilibrated in a 30% sucrose solution at 4° C., and embedded and frozen in O.C.T. Compound (Tissue-Tek). Slides were cut to […] and blocked with 1% BSA and 10% serum matched to the secondary antibody species. […] All parameters that were quantified were acquired with identical microscope settings and adjusted identically in Photoshop, and all adjustments were applied equally across the entire tumor. Quantification was performed in ImageJ, using the wand tool on the overlaid multichannel image to draw a border around the tumor and then measuring the percent area within that border with signal for the channel of the marker quantified.
Determination of oxidized glutathione content. […] The percentage of oxidized glutathione was calculated from the reduced glutathione and total glutathione values determined by the kit.

N#Cc1cc(-c2n[nH]c(-c3ccncc3)n2)ccn1 [topiroxostat]
effect of agent on ex vivo killing of tumor cells by neutrophils (B16 cells): inhibited ex vivo tumor cell killing | effect of agent on oxidation in tumors (B16 tumors): prevented oxidation in tumors
